Test results as given in patent US20100004272A1, “Modulators of metabolism and the treatment of disorders related thereto” (ARENA PHARMACEUTICALS, INC., priority 2006, published 2010).

Experiments:
Male Sprague Dawley rats = assay: Oral glucose tolerance test (oGTT) in rats; assay type: in vivo, rat; details: fasted male Sprague Dawley rats, p.o. 30 min before dextrose 3 g/kg, doses 0.3, 3 or 30 mg/kg (dose of this value not stated), mean of six animals
Protocol: General Procedure—Oral Glucose tolerance test (oGTT)
Male Sprague Dawley rats (Harlan, San Diego, Calif.) weighing approximately 350-375 g were fasted for 16 hours and randomly grouped (n=6) to receive a RUP3 agonist at 0.3, 3 or 30 mg/kg. Compounds were delivered orally via a gavage needle (p.o., volume 2 mL/kg). At time 0, levels of blood glucose were assessed using a glucometer (Accu-Chek Advantage, Roche Diagnostics), and rats were administered either vehicle (20% hydroxypropyl-beta-cyclodextrin) or test compound. Thirty minutes after administration of test compound, levels of blood glucose were again assessed, and rats were administered dextrose orally at a dose of 3 g/kg. Blood glucose measurements were then taken 30 min, 60 min, and 120 min after this time.

RUP3 receptor [1] = target: T1, RUP3 receptor (Homo sapiens, UniProt Q8TDV5); assay: RUP3 dose response in melanophores (human RUP3); assay type: cell-based
T1 construct: expressed in transfected cells; host or cells: melanophores (as per Potenza and Lerner 1992), electroporated
T1 sequence (Q8TDV5 1-335): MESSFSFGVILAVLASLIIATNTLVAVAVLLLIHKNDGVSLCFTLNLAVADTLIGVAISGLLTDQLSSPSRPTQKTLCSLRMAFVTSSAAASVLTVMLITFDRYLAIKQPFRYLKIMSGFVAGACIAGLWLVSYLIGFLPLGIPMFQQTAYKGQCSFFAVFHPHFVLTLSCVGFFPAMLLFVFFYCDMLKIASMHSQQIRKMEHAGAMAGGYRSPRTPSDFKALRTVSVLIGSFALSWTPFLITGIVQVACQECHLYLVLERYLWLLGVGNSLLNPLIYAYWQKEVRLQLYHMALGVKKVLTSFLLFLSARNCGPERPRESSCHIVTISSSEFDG
Protocol: (§1) Melanophores are maintained in culture as reported by Potenza, M. N. and Lerner, M. R., in Pigment Cell Research, Vol. 5, 372-378, 1992 and transfected with the RUP3 expression vector (pCMV) using electroporation. Following electroporation, the transfected cells are plated into 96 well plates for the assay. The cells are then allowed to grow for 48 hours in order to both recover from the electroporation procedure and attain maximal receptor expression levels. On the assay day, the growth medium on the cells is replaced with serum-free buffer containing 10 nM melatonin. The melatonin acts via an endogenous Gi-coupled GPCR in the melanophores to lower intracellular cAMP levels. In response to lowered cAMP levels, the melanophores translocate their pigment to the center of the cell. The net effect of this is a significant decrease in the absorbance reading of the cell monolayer in the well, measured at […]. After a 1-hour incubation in melatonin, the cells become completely pigment-aggregated. At this point a baseline absorbance reading is collected. Serial dilutions of test compounds are then added to the plate and compounds that stimulate RUP3 produce increases in intracellular cAMP levels. […] The measured increase in absorbance compared to the baseline reading allows one to quantitate the degree of receptor stimulation and plot a dose-response curve.

RUP3 receptor [2] = target: T2, RUP3 receptor (Canis lupus familiaris, UniProt A0A8I3QZL6); assay: RUP3 dose response in melanophores (dog RUP3); assay type: cell-based
T2 sequence (A0A8I3QZL6 1-335): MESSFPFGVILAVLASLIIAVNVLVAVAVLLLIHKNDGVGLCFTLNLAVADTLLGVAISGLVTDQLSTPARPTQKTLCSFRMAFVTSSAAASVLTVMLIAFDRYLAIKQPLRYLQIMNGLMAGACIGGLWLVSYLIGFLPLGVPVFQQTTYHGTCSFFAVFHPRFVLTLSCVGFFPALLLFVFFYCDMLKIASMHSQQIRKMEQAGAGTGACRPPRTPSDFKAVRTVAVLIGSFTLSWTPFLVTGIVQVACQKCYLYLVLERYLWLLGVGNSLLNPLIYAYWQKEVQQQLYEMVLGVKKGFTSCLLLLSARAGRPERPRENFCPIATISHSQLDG
Protocol: as §1

RUP3 receptor [3] = target: T3, RUP3 receptor (Mus musculus, UniProt Q7TQP3); assay: RUP3 dose response in melanophores (mouse RUP3); assay type: cell-based
T3 construct: expressed in transfected cells; host or cells: melanophores, electroporated
T3 sequence (Q7TQP3 1-335): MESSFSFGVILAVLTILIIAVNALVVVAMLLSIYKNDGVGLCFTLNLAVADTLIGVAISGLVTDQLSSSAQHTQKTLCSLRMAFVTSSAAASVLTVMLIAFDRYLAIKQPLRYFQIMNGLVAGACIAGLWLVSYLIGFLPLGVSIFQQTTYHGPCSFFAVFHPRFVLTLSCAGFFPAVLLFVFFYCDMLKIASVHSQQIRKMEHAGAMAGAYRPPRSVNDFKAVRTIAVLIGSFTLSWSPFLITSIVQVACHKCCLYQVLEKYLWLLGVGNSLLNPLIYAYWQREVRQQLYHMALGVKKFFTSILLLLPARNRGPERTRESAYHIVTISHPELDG
Protocol: as §1

RUP3 receptor [4] = target: T4, RUP3 receptor (Rattus norvegicus, UniProt Q7TQN8); assay: RUP3 dose response in melanophores (rat RUP3); assay type: cell-based
T4 construct: expressed in transfected cells; host or cells: melanophores, electroporated
T4 sequence (Q7TQN8 1-468): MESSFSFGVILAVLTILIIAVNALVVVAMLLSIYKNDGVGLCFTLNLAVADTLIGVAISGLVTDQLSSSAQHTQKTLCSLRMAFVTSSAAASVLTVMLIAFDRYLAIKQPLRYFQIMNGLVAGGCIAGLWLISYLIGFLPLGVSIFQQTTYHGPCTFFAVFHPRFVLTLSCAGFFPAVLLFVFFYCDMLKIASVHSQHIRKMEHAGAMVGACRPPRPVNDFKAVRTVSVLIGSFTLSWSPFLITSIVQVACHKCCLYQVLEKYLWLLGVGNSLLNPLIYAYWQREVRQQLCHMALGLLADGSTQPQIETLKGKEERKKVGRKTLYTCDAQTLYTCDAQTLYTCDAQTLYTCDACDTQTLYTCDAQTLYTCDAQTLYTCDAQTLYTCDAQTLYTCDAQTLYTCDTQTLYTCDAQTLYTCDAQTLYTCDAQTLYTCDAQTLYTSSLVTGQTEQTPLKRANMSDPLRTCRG
Protocol: as §1

[5] = Rat dose-range PK study (dose escalation pharmacokinetics); assay type: in vivo; details: PO 3, 30, 300 mg/Kg, FIG. 1
Protocol: Male SD rats (250-300 g) were purchased from Charles River Laboratory; upon receipt, animals were placed under light-dark cycle (6:30 am-6:30 pm lights on) They were allowed ad libitum access to water and 4 pieces of food daily (Purina Meals Rodent Diet, Product Number 5001).
Compound formulations were prepared as following: The IV injection formulation was prepared in 20% hydroxypropyl-beta-cyclodextrin with concentration of 0.667 mg/mL. The PO formulations were prepared in 0.5% hydroxypropyl methylcellulose with concentrations of […]. The dosing volume for IV injection was 3 mL/Kg and for PO administration was 10 mL/Kg. Four rats were used for each dose group. […]
Plasma samples were prepared as follows. […] Calibration standards were typically prepared in the range of 2.0 ng/mL to 10 μg/mL with linear regression for quantitation. […]
Results were calculated by noncompartmental analysis using WinNonlin Pro version 3.1 based on plasma concentration-time profiles for individual animals. Plasma levels were determined as described above and the oral and intravenous area under the concentration vs. time curve (AUC was calculated using the linear trapezoidal rule up to the last measurable concentration and was then extrapolated to infinity) were compared to determine the % bioavailability (% oF) by the following formula: Dose (IV)*AUC (oral)/Dose (oral)*AUC (IV). […]

SMILES: Cc1nc(S(C)(=O)=O)ccc1Nc1ncnc(OC2CCN(C(=O)OC(C)C)CC2)c1C [Formula (I), 4-[6-(6-methanesulfonyl-2-methyl-pyridin-3-ylamino)-5-methyl-pyrimidin-4-yloxy]-piperidine-1-carboxylic acid isopropyl ester]
- mean percent inhibition of glucose excursion (Male Sprague Dawley rats): 38%
- EC50 (RUP3 receptor [1]): 2 nM
- EC50 (RUP3 receptor [2]): 8 nM
- EC50 (RUP3 receptor [3]): 43 nM
- EC50 (RUP3 receptor [4]): 42 nM
- dose escalation pharmacokinetics (AUC vs. dose linearity) [5]: essentially linear dose escalation pharmacokinetics
